Test results taken from ChEMBL document CHEMBL1201862, “PubChem BioAssay data set” (2004).
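The compound was tested at five concentrations on cells cultured in 96-well plates, with a 48-hour exposure period. GI50: concentration for 50% inhibition of growth.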 Active and inactive are the calls of the source. Cut-off read from the data, not from the text of the source: active = GI50 up to about 1.1 µM and inactive = higher.

Columns and labels:
Test in all cases: DTP human tumour cell line panel, 48 h
786-0 = tested on: 786-0
A498 = tested on: A498
A549 = tested on: A549
ACHN = tested on: ACHN
BT-549 = tested on: BT-549
CAKI-1 = tested on: CAKI-1
CCRF-CEM = tested on: CCRF-CEM
COLO 205 = tested on: COLO 205
EKVX = tested on: EKVX
HCC 2998 = tested on: HCC 2998
HCT-116 = tested on: HCT-116
HCT-15 = tested on: HCT-15
HL-60 = tested on: HL-60
HOP-62 = tested on: HOP-62
HOP-92 = tested on: HOP-92
HT-29 = tested on: HT-29
IGROV-1 = tested on: IGROV-1
K562 = tested on: K562
KM12 = tested on: KM12
LOX IMVI = tested on: LOX IMVI
M14 = tested on: M14
MCF7 = tested on: MCF7
MDA-MB-231 = tested on: MDA-MB-231
MDA-MB-435 = tested on: MDA-MB-435
MDA-N = tested on: MDA-N
MOLT-4 = tested on: MOLT-4
Malme-3M = tested on: Malme-3M
NCI-H226 = tested on: NCI-H226
NCI-H23 = tested on: NCI-H23
NCI-H522 = tested on: NCI-H522
NCI/ADR-RES = tested on: NCI/ADR-RES
OVCAR-3 = tested on: OVCAR-3
OVCAR-4 = tested on: OVCAR-4
OVCAR-5 = tested on: OVCAR-5
OVCAR-8 = tested on: OVCAR-8
PC-3 = tested on: PC-3
RPMI-8226 = tested on: RPMI-8226
SF-295 = tested on: SF-295
SF-539 = tested on: SF-539
SK-MEL-28 = tested on: SK-MEL-28
SK-MEL-2 = tested on: SK-MEL-2
SK-MEL-5 = tested on: SK-MEL-5
SK-OV-3 = tested on: SK-OV-3
SN12C = tested on: SN12C
SNB-19 = tested on: SNB-19
SNB-75 = tested on: SNB-75
SR = tested on: SR
SW-620 = tested on: SW-620
T47D = tested on: T47D
TK-10 = tested on: TK-10
U-251 = tested on: U-251
UACC-257 = tested on: UACC-257
UACC-62 = tested on: UACC-62
UO-31 = tested on: UO-31
DU-145 = tested on: DU-145
NCI-H460 = tested on: NCI-H460
RXF 393 = tested on: RXF 393
SF-268 = tested on: SF-268

Measured: GI50

Cn1cnc([N+](=O)[O-])c1Sc1nncc2[nH]cnc12
> 100 µM: HCT-15
inactive: 786-0 > 100 µM | A498 > 100 µM | A549 > 100 µM | ACHN > 100 µM | BT-549 > 100 µM | CAKI-1 > 100 µM | CCRF-CEM > 100 µM | COLO 205 > 100 µM | EKVX > 100 µM | HCC 2998 > 100 µM | HCT-116 > 100 µM | HL-60 > 100 µM | HOP-62 > 100 µM | HOP-92 > 100 µM | HT-29 > 100 µM | IGROV-1 > 100 µM | K562 > 100 µM | KM12 > 100 µM | LOX IMVI > 100 µM | M14 > 100 µM | MCF7 > 100 µM | MDA-MB-231 > 100 µM | MDA-MB-435 > 100 µM | MDA-N > 100 µM | MOLT-4 > 100 µM | Malme-3M 28.8 µM | NCI-H226 > 100 µM | NCI-H23 > 100 µM | NCI-H522 > 100 µM | NCI/ADR-RES > 100 µM | OVCAR-3 > 100 µM | OVCAR-4 > 100 µM | OVCAR-5 > 100 µM | OVCAR-8 > 100 µM | PC-3 > 100 µM | RPMI-8226 > 100 µM | SF-295 > 100 µM | SF-539 > 100 µM | SK-MEL-28 > 100 µM | SK-MEL-2 > 100 µM | SK-MEL-5 > 100 µM | SK-OV-3 > 100 µM | SN12C > 100 µM | SNB-19 7.82 µM | SNB-75 > 100 µM | SR > 100 µM | SW-620 > 100 µM | T47D > 100 µM | TK-10 > 100 µM | U-251 > 100 µM | UACC-257 > 100 µM | UACC-62 > 100 µM | UO-31 > 100 µM

CO[C@H]1/C=C/O[C@@]2(C)Oc3c(C)c(O)c4c(O)c(c(/C=N/N5CCN(C)CC5)c(O)c4c3C2=O)NC(=O)/C(C)=C\C=C\[C@H](C)[C@H](O)[C@@H](C)[C@@H](O)[C@@H](C)[C@H](OC(C)=O)[C@@H]1C [RIFAMPIN]
inactive: 786-0 > 100 µM | A498 > 100 µM | A549 > 100 µM | ACHN > 100 µM | BT-549 62.8 µM | CAKI-1 > 100 µM | CCRF-CEM 26.2 µM | COLO 205 82.6 µM | DU-145 > 100 µM | EKVX > 100 µM | HCC 2998 72.6 µM | HCT-116 97.7 µM | HOP-62 > 100 µM | HT-29 60 µM | IGROV-1 73.6 µM | K562 > 100 µM | KM12 > 100 µM | M14 62.1 µM | MCF7 > 100 µM | MDA-MB-231 24.5 µM | MDA-MB-435 > 100 µM | MDA-N > 100 µM | MOLT-4 68.7 µM | Malme-3M 37.5 µM | NCI-H460 45.8 µM | NCI/ADR-RES > 100 µM | OVCAR-3 24.8 µM | OVCAR-5 > 100 µM | OVCAR-8 > 100 µM | PC-3 81.5 µM | RPMI-8226 52.1 µM | RXF 393 > 100 µM | SK-MEL-28 > 100 µM | SK-MEL-2 > 100 µM | SK-MEL-5 61.4 µM | SK-OV-3 > 100 µM | SN12C > 100 µM | SR 3.32 µM | SW-620 > 100 µM | T47D > 100 µM | TK-10 > 100 µM | UACC-257 80.5 µM | UACC-62 > 100 µM | UO-31 68.4 µM

COC(=O)c1cc2ccc(N)nc2[nH]c1=O
> 100 µM: HCT-15
inactive: 786-0 > 100 µM | A498 > 100 µM | A549 > 100 µM | ACHN > 100 µM | BT-549 > 100 µM | CAKI-1 > 100 µM | COLO 205 > 100 µM | EKVX > 100 µM | HCC 2998 > 100 µM | HCT-116 > 100 µM | HOP-62 > 100 µM | HOP-92 > 100 µM | IGROV-1 > 100 µM | KM12 > 100 µM | LOX IMVI > 100 µM | M14 > 100 µM | MCF7 > 100 µM | MDA-MB-231 > 100 µM | MDA-MB-435 > 100 µM | MDA-N > 100 µM | Malme-3M > 100 µM | NCI-H226 > 100 µM | NCI-H23 > 100 µM | NCI-H460 > 100 µM | NCI-H522 > 100 µM | NCI/ADR-RES > 100 µM | OVCAR-3 > 100 µM | OVCAR-4 > 100 µM | OVCAR-5 > 100 µM | OVCAR-8 > 100 µM | PC-3 > 100 µM | RPMI-8226 > 100 µM | RXF 393 > 100 µM | SF-268 > 100 µM | SF-295 > 100 µM | SF-539 > 100 µM | SK-MEL-28 > 100 µM | SK-MEL-2 > 100 µM | SK-MEL-5 > 100 µM | SK-OV-3 > 100 µM | SN12C > 100 µM | SNB-19 > 100 µM | SNB-75 > 100 µM | SW-620 > 100 µM | T47D > 100 µM | TK-10 > 100 µM | U-251 > 100 µM | UACC-257 > 100 µM | UO-31 > 100 µM
